Assay results published in patent US20100035755A1, “METHOD OF CONTROLLING WEEDS IN A TURF GRASS BY USING SULFONYLUREA COMPOUNDS” (Moghu Research Center Ltd., priority 2008, published 2010).

Experiments:
[1] = test system: Bentgrass; experiment: Turf grass selectivity, greenhouse pot test; assay type: in vivo, Agrostris palustris
Source text: Turf mats of Zoysia grass, bentgrass, Kentucky bluegrass, or perennial rye grass known as cool season turfgrass or western grass were purchased and cut into a piece having 10 cm×20 cm size. Then, each piece was transplanted in a rectangular plastic pot (surface area of 300 cm^2) in which sandy loam and mixed top soil (Boo-Nong Top Soil No. 3, for horticultural use) are filled in 1:1 ratio. After the transplantation, the grasses were cut once a week to maintain the blade height at 0.5-1.0 cm and cultivated for one month in a green house of which temperature was kept at 25˜30° C. for daytime and 15˜25° C. for nighttime, respectively. Then, the ‘test chemical’ of the above Examples 1 and 2 or ‘control chemical’ was applied thereto in an amount of 400, 200, 100, 50, 25, 12, 6, 3 g ai/ha. As a “control chemical”, pyrazolsulfuron ethyl wettable agent (manufactured by Dongbu Fine Chemicals; herein after, referred to as ‘control chemical No. 1’) and flazasulfuron (manufactured by Dongbu HiTek; herein after, referred to as ‘control chemical No. 2’), both sulfonylurea herbicides for a turf grass, were used. Application was carried out by using a track sprayer (R&D Sprayer, USA) equipped with Teejet 8002 nozzle (Spraying Systems Co., USA), and the application amount was adjusted to 2,000 L/ha, which is a typical application amount for a golf course in Korea. Application solution was prepared by diluting the “test chemical” or the “control chemical” with tap water. […] The test was repeated three times in a random arrangement and the results are given in average value of each test (see Table 2 below).

[2] = test system: Kummerowia striata; experiment: Weed spectrum, greenhouse pot test; assay type: in vivo; settings: two weeks after application
Outline: (§1)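 Seeds of each species were sown into pots filled with sandy loam and top soil (1:1) and kept in a greenhouse. Test chemical was sprayed immediately after sowing (pre-emergence) or after two weeks' growth to about three-leaf stage (post-emergence). Efficacy was judged visually after two weeks, from 0 (none) to 100.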

[3] = test system: Poa annua; experiment: Weed spectrum, greenhouse pot test; assay type: in vivo; settings: for efficacy (0-100 scale): two weeks after application
Outline: as §1

[4] = test system: Trifolium repens; experiment: Weed spectrum, greenhouse pot test; assay type: in vivo; settings: two weeks after application
Outline: as §1

[5] = test system: Kentucky bluegrass; experiment: Actual field condition test of Example 1 (golf course); assay type: in vivo, Poa pratensis; settings: 100 g ai/ha, twenty days after application
Protocol: (§2) The test chemical of the Example 1 was applied to a turf grass field, in which Digitaria sanguinalis as a representative summer-time poaceae weed and Kyllinga brevifolia as a representative hard-to-control perennial cyperaceae weed are thriving predominantly, to evaluate weed control effect of the compound. The experiment was carried out from May to July, 2008 in the Dae-duk Research Park golf course (Doryong-dong, Yusong-gu, Daejon, South Korea). At the time of the chemical application, Digitaria sanguinalis was at about 4-leaf stage and Kyllinga brevifolia was at growth period.

[6] = test system: Zoysia japonica; experiment: as above; assay type: in vivo; settings: 100 g ai/ha, twenty days after application
Protocol: as §2

[7] = test system: Viola arvensis; experiment: Actual field condition test of Example 2 (turf grass field); assay type: in vivo; settings: 50 g ai/ha
Protocol: The test chemical of the Example 2 was applied to a turf grass field, in which Viola arvensis as a representative hard-to-control perennial weed is thriving predominantly, to evaluate a weed control effect of the compound. The experiment was carried out from May to June, 2007 in the turf grass field within Korea Research Institute of Bioscience and Biotechnology (52, Ueun-dong, Yusong-gu, Daejon, South Korea). Fourteen days after the chemical application, the turf grass was cut once.

[8] = test system: cool season turfgrass; experiment: Turf grass selectivity, summary for cool season turfgrass; assay type: in vivo; settings: 25 g ai/ha or more
Source text: Turf mats of Zoysia grass, bentgrass, Kentucky bluegrass, or perennial rye grass known as cool season turfgrass or western grass were purchased and cut into a piece having 10 cm×20 cm size. Then, each piece was transplanted in a rectangular plastic pot (surface area of 300 cm^2) in which sandy loam and mixed top soil (Boo-Nong Top Soil No. 3, for horticultural use) are filled in 1:1 ratio. After the transplantation, the grasses were cut once a week to maintain the blade height at 0.5-1.0 cm and cultivated for one month in a green house of which temperature was kept at 25˜30° C. for daytime and 15˜25° C. for nighttime, respectively. Then, the ‘test chemical’ of the above Examples 1 and 2 or ‘control chemical’ was applied thereto in an amount of 400, 200, 100, 50, 25, 12, 6, 3 g ai/ha. As a “control chemical”, pyrazolsulfuron ethyl wettable agent (manufactured by Dongbu Fine Chemicals; herein after, referred to as ‘control chemical No. 1’) and flazasulfuron (manufactured by Dongbu HiTek; herein after, referred to as ‘control chemical No. 2’), both sulfonylurea herbicides for a turf grass, were used. Application was carried out by using a track sprayer (R&D Sprayer, USA) equipped with Teejet 8002 nozzle (Spraying Systems Co., USA), and the application amount was adjusted to 2,000 L/ha, which is a typical application amount for a golf course in Korea. […]

In the case of `CCOC(=O)c1cnn(C)c1S(=O)(=O)NC(=O)Nc1nc(OC)cc(OC)n1` [Control chemical No. 1, Pyrazosulfuron ethyl, reference compound], the “phytotoxicity (visual assessment 0-10)” value ([1]; 3 g ai/ha, 2 weeks) was 0, the “phytotoxicity (visual assessment 0-10)” value ([1]; 3 g ai/ha, 4 weeks) was 0 and the “phytotoxicity (visual assessment 0-10)” value ([1]; 6 g ai/ha, 2 weeks) was 0. The “phytotoxicity (visual assessment 0-10)” value ([1]; 6 g ai/ha, 4 weeks) was 0, the “phytotoxicity (visual assessment 0-10)” value ([1]; 12 g ai/ha, 2 weeks) was 0 and the “phytotoxicity (visual assessment 0-10)” value ([1]; 12 g ai/ha, 4 weeks) was 0. The “phytotoxicity (visual assessment 0-10)” value ([1]; 25 g ai/ha, 2 weeks) was 0, the “phytotoxicity (visual assessment 0-10)” value ([1]; 25 g ai/ha, 4 weeks) was 0 and the “phytotoxicity (visual assessment 0-10)” value ([1]; 50 g ai/ha, 2 weeks) was 0. For the same compound, the “phytotoxicity (visual assessment 0-10)” value ([1]; 50 g ai/ha, 4 weeks) was 0, the “phytotoxicity (visual assessment 0-10)” value ([1]; 100 g ai/ha, 2 weeks) was 1 and the “phytotoxicity (visual assessment 0-10)” value ([1]; 100 g ai/ha, 4 weeks) was 0. The “phytotoxicity (visual assessment 0-10)” value ([1]; 200 g ai/ha, 2 weeks) was 2, the “phytotoxicity (visual assessment 0-10)” value ([1]; 200 g ai/ha, 4 weeks) was 0 and the “phytotoxicity (visual assessment 0-10)” value ([1]; 400 g ai/ha, 2 weeks) was 3. For the same compound, the “phytotoxicity (visual assessment 0-10)” value ([1]; 400 g ai/ha, 4 weeks) was 1, the “efficacy (0-100 scale)” value ([2]; Post-emergence, 12 g ai/ha) was 0 and the “efficacy (0-100 scale)” value ([2]; Post-emergence, 25 g ai/ha) was 30. For the same compound, the “efficacy (0-100 scale)” value ([2]; Post-emergence, 50 g ai/ha) was 40, the “efficacy (0-100 scale)” value ([2]; Post-emergence, 100 g ai/ha) was 50 and the “efficacy (0-100 scale)” value ([2]; Pre-emergence, 12 g ai/ha) was 30. The “efficacy (0-100 scale)” value ([2]; Pre-emergence, 25 g ai/ha) was 50, the “efficacy (0-100 scale)” value ([2]; Pre-emergence, 50 g ai/ha) was 50 and the “efficacy (0-100 scale)” value ([2]; Pre-emergence, 100 g ai/ha) was 70. The “efficacy (0-100 scale)” value ([3]; Post-emergence, 12 g ai/ha) was 0, the “efficacy (0-100 scale)” value ([3]; Post-emergence, 25 g ai/ha) was 0 and the “efficacy (0-100 scale)” value ([3]; Post-emergence, 50 g ai/ha) was 0. For the same compound, the “efficacy (0-100 scale)” value ([3]; Post-emergence, 100 g ai/ha) was 10, the “efficacy (0-100 scale)” value ([3]; Pre-emergence, 12 g ai/ha) was 0 and the “efficacy (0-100 scale)” value ([3]; Pre-emergence, 25 g ai/ha) was 10. For the same compound, the “efficacy (0-100 scale)” value ([3]; Pre-emergence, 50 g ai/ha) was 20, the “efficacy (0-100 scale)” value ([3]; Pre-emergence, 100 g ai/ha) was 20 and the “efficacy (0-100 scale)” value ([4]; Post-emergence, 12 g ai/ha) was 20. The “efficacy (0-100 scale)” value ([4]; Post-emergence, 25 g ai/ha) was 60, the “efficacy (0-100 scale)” value ([4]; Post-emergence, 50 g ai/ha) was 70 and the “efficacy (0-100 scale)” value ([4]; Post-emergence, 100 g ai/ha) was 80. The “efficacy (0-100 scale)” value ([4]; Pre-emergence, 12 g ai/ha) was 40, the “efficacy (0-100 scale)” value ([4]; Pre-emergence, 25 g ai/ha) was 60 and the “efficacy (0-100 scale)” value ([4]; Pre-emergence, 50 g ai/ha) was 70. The “efficacy (0-100 scale)” value ([4]; Pre-emergence, 100 g ai/ha) was 70, the “phytotoxicity in actual field condition” value [5] was 0 and the “phytotoxicity in actual field condition” value [6] was 0.

In the case of `COc1nc(C)nc(NC(=O)NS(=O)(=O)c2cscc2C2(CF)OCCO2)n1` [Example 2, 3-(2-fluoromethyl-1,3-dioxalan-2-yl)-N-[(4-methoxy-6-methyltriazin-2-yl)aminocarbonyl]4-thiophene sulfonamide], the “phytotoxicity (visual assessment 0-10)” value ([1]; 3 g ai/ha, 2 weeks) was 3, the “phytotoxicity (visual assessment 0-10)” value ([1]; 3 g ai/ha, 4 weeks) was 1 and the “phytotoxicity (visual assessment 0-10)” value ([1]; 6 g ai/ha, 2 weeks) was 5. For the same compound, the “phytotoxicity (visual assessment 0-10)” value ([1]; 6 g ai/ha, 4 weeks) was 3, the “phytotoxicity (visual assessment 0-10)” value ([1]; 12 g ai/ha, 2 weeks) was 7 and the “phytotoxicity (visual assessment 0-10)” value ([1]; 12 g ai/ha, 4 weeks) was 5. For the same compound, the “phytotoxicity (visual assessment 0-10)” value ([1]; 25 g ai/ha, 2 weeks) was 10, the “phytotoxicity (visual assessment 0-10)” value ([1]; 25 g ai/ha, 4 weeks) was 10 and the “phytotoxicity (visual assessment 0-10)” value ([1]; 50 g ai/ha, 2 weeks) was 10. For the same compound, the “phytotoxicity (visual assessment 0-10)” value ([1]; 50 g ai/ha, 4 weeks) was 10, the “phytotoxicity (visual assessment 0-10)” value ([1]; 100 g ai/ha, 2 weeks) was 10 and the “phytotoxicity (visual assessment 0-10)” value ([1]; 100 g ai/ha, 4 weeks) was 10. For the same compound, the “phytotoxicity (visual assessment 0-10)” value ([1]; 200 g ai/ha, 2 weeks) was 10, the “phytotoxicity (visual assessment 0-10)” value ([1]; 200 g ai/ha, 4 weeks) was 10 and the “phytotoxicity (visual assessment 0-10)” value ([1]; 400 g ai/ha, 2 weeks) was 10. The “phytotoxicity (visual assessment 0-10)” value ([1]; 400 g ai/ha, 4 weeks) was 10, the “efficacy (0-100 scale)” value ([2]; Post-emergence, 12 g ai/ha) was 70 and the “efficacy (0-100 scale)” value ([2]; Post-emergence, 25 g ai/ha) was 70. For the same compound, the “efficacy (0-100 scale)” value ([2]; Post-emergence, 50 g ai/ha) was 100, the “efficacy (0-100 scale)” value ([2]; Post-emergence, 100 g ai/ha) was 100 and the “efficacy (0-100 scale)” value ([2]; Pre-emergence, 12 g ai/ha) was 70. The “efficacy (0-100 scale)” value ([2]; Pre-emergence, 25 g ai/ha) was 90, the “efficacy (0-100 scale)” value ([2]; Pre-emergence, 50 g ai/ha) was 90 and the “efficacy (0-100 scale)” value ([2]; Pre-emergence, 100 g ai/ha) was 100. For the same compound, the weed controlled ([3]; 50 to 100 g/ha) was “at least 90%”, the “efficacy (0-100 scale)” value ([3]; Post-emergence, 12 g ai/ha) was 60 and the “efficacy (0-100 scale)” value ([3]; Post-emergence, 25 g ai/ha) was 80. The “efficacy (0-100 scale)” value ([3]; Post-emergence, 50 g ai/ha) was 90, the “efficacy (0-100 scale)” value ([3]; Post-emergence, 100 g ai/ha) was 95 and the “efficacy (0-100 scale)” value ([3]; Pre-emergence, 12 g ai/ha) was 50. The “efficacy (0-100 scale)” value ([3]; Pre-emergence, 25 g ai/ha) was 60, the “efficacy (0-100 scale)” value ([3]; Pre-emergence, 50 g ai/ha) was 90 and the “efficacy (0-100 scale)” value ([3]; Pre-emergence, 100 g ai/ha) was 90. The “efficacy (0-100 scale)” value ([4]; Post-emergence, 12 g ai/ha) was 40, the “efficacy (0-100 scale)” value ([4]; Post-emergence, 25 g ai/ha) was 50 and the “efficacy (0-100 scale)” value ([4]; Post-emergence, 50 g ai/ha) was 60. The “efficacy (0-100 scale)” value ([4]; Post-emergence, 100 g ai/ha) was 60, the “efficacy (0-100 scale)” value ([4]; Pre-emergence, 12 g ai/ha) was 30 and the “efficacy (0-100 scale)” value ([4]; Pre-emergence, 25 g ai/ha) was 60. The “efficacy (0-100 scale)” value ([4]; Pre-emergence, 50 g ai/ha) was 70, the “efficacy (0-100 scale)” value ([4]; Pre-emergence, 100 g ai/ha) was 90 and the “Effect on Viola arvensis” value ([7]; After 7 days) was 20. The “Effect on Viola arvensis” value ([7]; After 14 days) was 50 and the “phytotoxicity to cool season turfgrass” value [8] was “completely withered”.
